# From patent US9133158B2, “Bicyclic dihydroisoquinoline-1-one derivatives” (Hoffmann-La Roche Inc., priority 2011, dated 2015)
# Tests used:
# [1] = target: T1, human CYP11B2 (Homo sapiens, UniProt P19099); test: G-402 cellular enzyme assay, human CYP11B2 (aldosterone release, HTRF); type: cell-based; conditions: G-402 cells, 1 μM Deoxycorticosterone
# T1 construct: expressed in transfected cells
# T1 sequence (P19099 25-503): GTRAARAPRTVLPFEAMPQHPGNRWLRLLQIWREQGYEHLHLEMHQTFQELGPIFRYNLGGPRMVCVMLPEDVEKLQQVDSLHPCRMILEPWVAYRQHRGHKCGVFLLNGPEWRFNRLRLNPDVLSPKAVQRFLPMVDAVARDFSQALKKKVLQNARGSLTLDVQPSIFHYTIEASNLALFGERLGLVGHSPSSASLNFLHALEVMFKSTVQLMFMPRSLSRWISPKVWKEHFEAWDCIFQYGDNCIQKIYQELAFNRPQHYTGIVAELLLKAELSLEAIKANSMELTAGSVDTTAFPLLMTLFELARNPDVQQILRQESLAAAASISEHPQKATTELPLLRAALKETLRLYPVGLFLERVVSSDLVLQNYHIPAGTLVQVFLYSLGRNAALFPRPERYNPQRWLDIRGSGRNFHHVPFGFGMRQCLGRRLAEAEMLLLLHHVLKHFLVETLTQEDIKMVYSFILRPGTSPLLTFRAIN
# Summary of the method: (§1)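 Stable G-402 transfectants; 16 h incubation with inhibitor plus substrate — CYP11B2: 1 μM deoxycorticosterone, aldosterone read; CYP11B1: 1 μM deoxycortisol, cortisol read. HTRF on supernatant. Medium DMEM/F12, 2.5% charcoal FCS. EC50 via MMF sigmoidal fit.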
# [2] = target: T2, human CYP11B1 (Homo sapiens, UniProt P15538); test: G-402 cellular enzyme assay, human CYP11B1 (cortisol release, HTRF); type: cell-based; conditions: G-402 cells, 1 μM Deoxycortisol
# T2 construct: expressed in transfected cells
# T2 sequence (P15538 25-503): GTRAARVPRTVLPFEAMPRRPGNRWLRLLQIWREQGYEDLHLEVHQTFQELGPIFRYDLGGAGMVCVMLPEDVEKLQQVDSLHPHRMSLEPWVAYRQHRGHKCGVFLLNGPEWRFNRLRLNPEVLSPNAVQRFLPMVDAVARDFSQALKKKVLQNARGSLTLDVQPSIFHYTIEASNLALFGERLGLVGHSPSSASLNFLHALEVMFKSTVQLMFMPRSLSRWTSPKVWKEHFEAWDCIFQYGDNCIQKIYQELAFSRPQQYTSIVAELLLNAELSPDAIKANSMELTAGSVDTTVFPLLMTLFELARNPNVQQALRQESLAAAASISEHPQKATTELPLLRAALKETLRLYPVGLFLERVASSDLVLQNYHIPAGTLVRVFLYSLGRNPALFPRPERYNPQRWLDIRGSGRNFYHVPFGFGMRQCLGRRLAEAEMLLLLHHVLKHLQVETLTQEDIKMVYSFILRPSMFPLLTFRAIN
# Summary of the method: as §1
Compound,EC50 [1] [nM],EC50 [2] [nM]
"O=C1c2ccc(Cl)cc2CCN1c1cncc(Cn2ccnc2Cl)c1 [Example 176, 6-Chloro-2-[5-(2-chloro-imidazol-1-ylmethyl)-pyridin-3-yl]-3,4-dihydro-2H-isoquinolin-1-one]",9.8,57.8
"O=C1c2ccc(Cl)cc2CCN1c1cncc(Cn2cncn2)c1 [Example 180, 6-Chloro-2-(5-[1,2,4]triazol-1-ylmethyl-pyridin-3-yl)-3,4-dihydro-2H-isoquinolin-1-one]",123,802
"O=C1c2ccc(Cl)cc2CCN1c1cncc(Cn2ncc3ccccc32)c1 [Example 182, 6-Chloro-2-(5-indazol-1-ylmethyl-pyridin-3-yl)-3,4-dihydro-2H-isoquinolin-1-one]",27.5,306
"O=C1c2ccc(Cl)cc2CCN1c1cncc(Cn2cc3ccccc3n2)c1 [Example 183, 6-Chloro-2-(5-indazol-2-ylmethyl-pyridin-3-yl)-3,4-dihydro-2H-isoquinolin-1-one]",29.9,385
"O=C1c2ccc(Cl)cc2CCN1c1cncc(Cn2ccc3cccc(F)c32)c1 [Example 185, 6-Chloro-2-[5-(7-fluoro-indol-1-ylmethyl)-pyridin-3-yl]-3,4-dihydro-2H-isoquinolin-1-one]",66,673
"Cc1cnn(Cc2cncc(N3CCc4cc(Cl)ccc4C3=O)c2)c1 [Example 187, 6-Chloro-2-[5-(4-methyl-pyrazol-1-ylmethyl)-pyridin-3-yl]-3,4-dihydro-2H-isoquinolin-1-one]",137,2230
"O=C1c2ccc(Cl)cc2CCN1c1cncc(Cn2ccnc2C2CC2)c1 [Example 188, 6-Chloro-2-[5-(2-cyclopropyl-imidazol-1-ylmethyl)-pyridin-3-yl]-3,4-dihydro-2H-isoquinolin-1-one]",228,4150

# Other lines, results leading:
EC50 [1] [nM],EC50 [2] [nM],Compound
334,12300,"O=C1CCCCN1Cc1cncc(N2CCc3cc(Cl)ccc3C2=O)c1 [Example 173, 6-Chloro-2-[5-(2-oxo-piperidin-1-ylmethyl)-pyridin-3-yl]-3,4-dihydro-2H-isoquinolin-1-one]"
25.8,211,"O=C1c2ccc(Cl)cc2CCN1c1cncc(Cn2nccn2)c1 [Example 174, 6-Chloro-2-(5-[1,2,3]triazol-2-ylmethyl-pyridin-3-yl)-3,4-dihydro-2H-isoquinolin-1-one]"
105,656,"O=C1c2ccc(Cl)cc2CCN1c1cncc(Cn2ccnn2)c1 [Example 175, 6-Chloro-2-(5-[1,2,3]triazol-1-ylmethyl-pyridin-3-yl)-3,4-dihydro-2H-isoquinolin-1-one]"
412,6310,"Cc1nncn1Cc1cncc(N2CCc3cc(Cl)ccc3C2=O)c1 [Example 177, 6-Chloro-2-[5-(3-methyl-[1,2,4]triazol-4-ylmethyl)-pyridin-3-yl]-3,4-dihydro-2H-isoquinolin-1-one]"
620,7720,"O=C1c2ccc(Cl)cc2CCN1c1cncc(Cn2cnnc2)c1 [Example 179, 6-Chloro-2-(5-[1,2,4]triazol-4-ylmethyl-pyridin-3-yl)-3,4-dihydro-2H-isoquinolin-1-one]"
217,1970,"Cc1nc2ccccc2n1Cc1cncc(N2CCc3cc(Cl)ccc3C2=O)c1 [Example 181, 6-Chloro-2-[5-(2-methyl-benzoimidazol-1-ylmethyl)-pyridin-3-yl]-3,4-dihydro-2H-isoquinolin-1-one]"
17.7,271,"O=C1c2ccc(Cl)cc2CCN1c1cncc(Cn2ccc3ccc(F)cc32)c1 [Example 184, 6-Chloro-2-[5-(6-fluoro-indol-1-ylmethyl)-pyridin-3-yl]-3,4-dihydro-2H-isoquinolin-1-one]"
23.2,211,"O=C1c2ccc(Cl)cc2CCN1c1cncc(Cn2ccc3c(F)cccc32)c1 [Example 186, 6-Chloro-2-[5-(4-fluoro-indol-1-ylmethyl)-pyridin-3-yl]-3,4-dihydro-2H-isoquinolin-1-one]"
